Results taken from PubChem BioAssay (NCI).
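1) Cells in 96-well plates. 2) Compound, 48 h, 5 concentrations. 3) Linear interpolation between surrounding doses. 4) Unreached endpoint = highest concentration. TGI: concentration producing complete growth inhibition.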 Where a SMILES comes first, the peptide text is derived from it. Bridges are numbered along the chain shown (N, C = ends). [ ]: non-standard residue; d: D form. Aib = CC(C)(N)C(=O)O; βAla = NCCC(=O)O

Tests used:
Experiment in all cases: NCI-60 cell line screen, 48 h
[1] = system: A498 renal
[2] = system: BT-549 breast
[3] = system: HCT-15 colon
[4] = system: HS 578T breast
[5] = system: PC-3 prostate
[6] = system: UACC-257 melanoma
[7] = system: UO-31 renal
[8] = system: HOP-62 NSCLC
[9] = system: KM12 colon

Row | Compound | TGI [1] [µM] | TGI [2] [µM] | TGI [3] [µM] | TGI [4] [µM] | TGI [5] [µM] | TGI [6] [µM] | TGI [7] [µM] | TGI [8] [µM] | TGI [9] [µM]
1 | O=C(Nc1ccc(C(F)(F)F)cc1)NC(F)(F)F | > 100 | > 100 | > 100 | > 100 | > 100 | > 100 | > 100 | – | –
2 | CN=C1Nc2ccccc2C(=O)N2CSCC12 (configuration not stated) | > 100 | > 100 | > 100 | > 100 | > 100 | > 100 | > 100 | > 100 | > 100
3 | Cc1[nH]c(=O)nc2nc3cc(Cl)cc(Cl)c3c(NC(C)(CO)CO)c12 | 99.4 | > 100 | > 100 | > 100 | > 100 | > 100 | > 100 | 83.7 | > 100
4 | CCOC(=O)c1nc2cc(C(F)(F)F)ccc2nc1Oc1ccc(C#N)cc1 | > 100 | > 100 | > 100 | > 100 | > 100 | > 100 | > 100 | – | > 100
5 | CC(C)CC(NC(=O)C(C)(CI)Cc1ccccc1)C(=O)Nc1ccccc1 (configuration not stated) | > 100 | – | > 100 | – | > 100 | > 100 | > 100 | – | > 100
6 | Cc1cc(S(=O)(=O)Nc2n[nH]c(-c3ccc(Cl)cc3)n2)c(SSc2cc(Cl)c(C)cc2S(=O)(=O)Nc2n[nH]c(-c3ccc(Cl)cc3)n2)cc1Cl | 59.1 | > 100 | 69.1 | > 100 | 84.6 | > 100 | 81.9 | > 100 | 77.4
7 | N#C/C(=C\c1ccc(F)cc1)c1nc(-c2cc3ccccc3oc2=O)cs1 | – | 24.8 | > 100 | 56.7 | > 100 | 65.9 | 97.9 | 25.7 | > 100
8 | COc1ccc(S(=O)(=O)N2C(=O)CCC2C(=O)NC(N)=O)cc1 (configuration not stated) | > 100 | > 100 | > 100 | > 100 | > 100 | > 100 | > 100 | > 100 | > 100
9 | O=C1/C(=C\c2ccc(Cl)cc2)N=C(c2ccccc2)N1n1c(=O)cn[nH]c1=S | > 100 | 92.3 | 69.5 | – | > 100 | > 100 | > 100 | > 100 | > 100
10 | COc1ccc2c3c1OC1C(F)C=CC4(O)C(C2)NCCC314 (configuration not stated) | 15.6 | 6.66 | 11.1 | 5.83 | 6.92 | 24.1 | 4.62 | 7.13 | 13
11 | COc1cc(OC)cc(OCc2nc3cc(C(F)(F)F)ccc3nc2-c2ccccc2)c1 | – | > 100 | > 100 | > 100 | > 100 | > 100 | > 100 | > 100 | > 100
12 | Cc1ccc(CC(Cc2ccccc2C)C(=O)O)c(C(=O)O)c1 (configuration not stated) | > 100 | > 100 | > 100 | > 100 | > 100 | > 100 | > 100 | > 100 | > 100
13 | O=C1C2C(C(=O)N1c1ccccc1)C1(c3ccccc3)CCC2(C(=O)c2ccccc2)O1 (configuration not stated) | > 10 | > 10 | > 10 | > 10 | > 10 | > 10 | > 10 | > 10 | > 10
14 | COC(=O)[C@]12CC3C=CC1N(C3)C(CBr)c1c2n(S(=O)(=O)c2ccccc2)c2ccccc12 (some centres not stated) | – | > 100 | > 100 | > 100 | > 100 | > 100 | > 100 | > 100 | > 100
15 | N#CC12C(=O)N3C(=NC(c4ccco4)NC3c3ccco3)C1(C#N)C(c1ccco1)NC1=C2CCCC1 (configuration not stated) | > 100 | > 100 | > 100 | > 100 | > 100 | > 100 | > 100 | > 100 | > 100
16 | CC1=NN(c2nc(N)nc(CN3CCOCC3)n2)C(C)(C)C1 | > 100 | > 100 | > 100 | > 100 | > 100 | > 100 | 33.3 | > 100 | > 100
17 | CCOCCOCCOCc1nc(C#N)c(N)o1 | > 100 | > 100 | > 100 | – | > 100 | > 100 | > 100 | > 100 | > 100
18 | O=c1oc2ccc3ccccc3c2cc1-c1nnc(Nc2ccccc2)s1 | 22.4 | > 100 | > 100 | > 100 | 36.6 | > 100 | 39.4 | – | > 100
19 | CCOc1cc(C2CC(c3ccc(NS(=O)(=O)c4cc([N+](=O)[O-])ccc4C)cc3)=NN2S(=O)(=O)c2cc([N+](=O)[O-])ccc2C)ccc1O (configuration not stated) | 22 | > 100 | > 100 | > 100 | > 100 | > 100 | > 100 | > 100 | > 100
20 | CC1(C)NC(=O)C(NC(=O)C(N)CC(=O)O)CCCCNC(=O)CCNC1=O (configuration not stated) (H-DK[Aib][βAla]; lactam 2-C; configuration not given here) | > 100 | > 100 | > 100 | > 100 | > 100 | > 100 | > 100 | > 100 | > 100
21 | O=C(O)c1ccccc1C(=O)NCC1S(=O)(=O)OCCOS1(=O)=O | > 100 | – | > 100 | > 100 | > 100 | > 100 | > 100 | > 100 | –
22 | O=c1c2cc(-c3ccccc3)cnc2sn1-c1ccc(Br)cc1 | > 100 | > 100 | > 100 | – | > 100 | > 100 | > 100 | > 100 | > 100
23 | Cc1ccc(O)c(C(c2cccc(C(c3cc(C)ccc3O)c3cc(C)ccc3O)c2)c2cc(C)ccc2O)c1 | 2.97 | 4.11 | 3.31 | 4.01 | 3.29 | 3.86 | 3.34 | 4.04 | 3.23
